“Also recorded” adds a separate entry of the source. Where two headings read alike, the source gives them in different places.
Experiments:
8505C tumors = test: Staining of excised xenograft tumors (Ki-67, cleaved PARP, PAS glycogen); assay type: in vivo, mouse
8505C cells [1] = test: Cell attachment to fibronectin-coated plates; assay type: cell-based, human; conditions: 24 hours of 50 μM CP treatment
Excerpt: Cells were washed with PBS and lifted with trypsin.

Nthy-ori-3-1 cells [2] = test: Immunoblot of apoptosis markers and Ki-67 in normal thyroid cells; assay type: cell-based, human
Procedure: (§1) Briefly, proteins were isolated from whole cells in lysis buffer (20 mM Tris-HCl (pH 8), 137 mM NaCl, 10% glycerol, 1% Triton X-100, and 2 mM EDTA), quantified via Pierce™ BCA Protein Assay Kit (Thermo Fisher Scientific), and 25 μg protein/sample were resolved by polyacrylamide gel electrophoresis and immobilized onto nitrocellulose membranes. Membranes were blocked with 5% w/v BSA in TBS and 0.1% v/v Tween20 (Gold Bio, St Louis, MO, USA) for one hour at room temperature and incubated with primary antibodies overnight. Membranes were washed with TBS-0.1% Tween20 and secondary antibodies were applied for 1 hour at room temperature in 5% w/v BSA in TBS and 0.1% v/v Tween20. Immunoreactive proteins were detected by enhanced chemiluminescence (Thermo Scientific) on a ChemiDoc XRS+ (Bio-Rad Laboratories). Densitometry analysis was performed using ImageJ.

Nthy-ori-3-1 cells [3] = test: Glycogen content (colorimetric assay, TEM) in normal thyroid cells; assay type: cell-based, human; conditions: Nthy-ori-3-1 normal thyroid cells, CP-91,149 50 μM, 24-hour incubation
Procedure: Transmission Electron Microscopy of Glycogen Deposits—Cells were seeded in 10 cm dishes and allowed to adhere overnight. […] Cells were then rinsed with PBS and lifted with trypsin for preparation for TEM as described previously. Thwe et al., “Cell-intrinsic Glycogen Metabolism Supports Early Glycolytic Reprogramming Required for Dendritic Cell Immune Responses,” Cell Metabolism 26:558-567.e555 (2017), which is hereby incorporated by reference in its entirety.
Quantification of Levels of Glycogen, Glucose-1-Phosphate, Glucose-6-Phosphate, Lactate, ATP, Glucose, NADPH, and Glutathione—Briefly, cells were seeded in 10 cm dishes (for measuring glycogen and NADPH), 6 well plates (GIP, G6P, lactate, glucose, and glutathione), or 96 well plates (ATP) and allowed to adhere overnight. CTM was aspirated and cells were rinsed with PBS before application of compounds dissolved in CTM for 24 hours, at which point cells were ~90% confluent. CTM was then aspirated, cells were rinsed with PBS, and lysed according to the respective manufacturer protocol (see Table 4) for metabolite analysis.

8505C cells [4] = test: RT-qPCR of glucose transporter expression; assay type: cell-based, human; conditions: 50 μM CP-91,149, 24 hours
Excerpt: RNA Extraction and Quantitative Real-Time PCR (qRT-PCR)—Total RNA was extracted using RNeasy Plus Kit (Qiagen) according to manufacturer's protocol. cDNA was synthesized using LunaScript® RT SuperMix Kit (New England Biolabs). Gene expression to validate RNA-seq analysis was quantified by qRT-PCR using Luna® Universal qPCR Master Mix (New England Biolabs) on a QuantStudio 3 real-time PCR system (Thermo Fisher Scientific). Fold change in gene expression compared to endogenous controls was calculated using the ddCT method.

8505C cells [5] = test: SRB cell viability assay in ATC cells; assay type: cell-based, human
Procedure: In Vitro Cell Staining for Measuring Drug Efficacy—Thyroid cells (4.0×10^3) were seeded in 96 well plates with 100 μl CTM and allowed to adhere overnight. 100 μl of CTM containing 2× concentration of compound was overlayed in each well for 48 hours unless otherwise indicated. Each well then received 100 μl of 10% w/v cold trichloroacetic acid (Fisher) and incubated at 4° C. for 1 hour to fix the cells. Each well was rinsed 3× with DI H2O and stained with 100 μl 0.057% w/v sulforhodamine B (SRB, Sigma-Aldrich) for 30 minutes at room temperature in the dark. Wells were washed 4× with 300 μl 1% v/v acetic acid (Fisher), and remaining SRB stain was solubilized with 200 μl of 10 mM Tris buffer, pH 10.5 (Fisher). Absorbance was measured at 564 nm with a Synergy 2 Multi-Detection Microplate Reader (Agilent Technologies) and normalized to a vehicle control. Drug synergy was evaluated using the coefficient of drug interaction (CDI) formula: CDI=AB/(A×B)×100, where AB is the percent remaining cells of an indicated combination treatment, A is the average percent remaining cells of agent 1 alone, and B is the average percent remaining cells of agent 2 alone. […] Hao et al., “Effect of Lumiracoxib on Proliferation and Apoptosis of Human Nonsmall Cell Lung Cancer Cells In vitro,” Chin Med J (Engl) 121:602-607 (2008), which is hereby incorporated by reference in its entirety. […]

8505C cells [6] = test: Immunoblot of apoptosis markers and Ki-67 in ATC cells; assay type: cell-based, human; conditions: for apoptosis (PARP, caspase 9 and caspase 7 cleavage): six hours
Procedure: as §1

[7] = immunofluorescence of excised tumors

CN(C)C(=O)[C@H](O)[C@H](Cc1ccccc1)NC(=O)c1cc2cc(Cl)ccc2[nH]1 [CP-91,149, 5-chloro-N-[(2S,3R)-4-(dimethylamino)-3-hydroxy-4-oxo-1-phenylbutan-2-yl]-1H-indole-2-carboxamide]
glycogen in tumor tissue (PAS staining) (8505C tumors; excised tumors): significantly increased the level of glycogen in the tumor tissue | Ki-67 expression in xenograft tumors (8505C tumors; [7]): reduction in Ki-67 expression | apoptosis (PARP cleavage) in xenograft tumors (8505C tumors; [7]): induces apoptosis in vivo | apoptosis (PARP cleavage) in xenograft tumors (8505C tumors; immunofluorescence of excised tumors, listed as CP): profoundly induced apoptosis | cell attachment to fibronectin-coated plates (8505C cells [1]): inhibits cell attachment | cell attachment to fibronectin-coated plates (8505C cells [1]; listed as CP): inhibited the ability of 8505C cells to attach to fibronectin-coated plates | apoptosis (PARP and caspase cleavage) (Nthy-ori-3-1 cells [2]): but not normal thyroid cells | apoptosis (PARP and caspase cleavage) (Nthy-ori-3-1 cells [2]; listed as CP): did not significantly induce apoptosis | proliferation (Ki-67 levels) (Nthy-ori-3-1 cells [2]; listed as CP): not affected | glycogen content (Nthy-ori-3-1 cells [3]): increased glycogen content | glycogen content (Nthy-ori-3-1 cells [3]; listed as CP): significantly increased glycogen content | SLC2A1 (GLUT1) expression (8505C cells [4]; 149): increases the expression | SLC2A3 (GLUT3) expression (8505C cells [4]; 149): increases the expression | SLC2A4 (GLUT4) expression (8505C cells [4]; 149): increases the expression | SLC2A1 (GLUT1) expression (8505C cells [4]; listed as CP): increase | SLC2A3 (GLUT3) expression (8505C cells [4]; listed as CP): increase | SLC2A4 (GLUT4) expression (8505C cells [4]; listed as CP): did not change | cell viability with excess (2 mM) pyruvate (8505C cells [5]; 8505C cells, 48 hours): nearly identical to the pyruvate-depleted group | cell viability with excess (25 mM) glucose (8505C cells [5]; 8505C cells, 48 hours): rescued cell viability | cell viability with pyruvate depletion (8505C cells [5]; 8505C cells, 48 hours): able to compensate for loss of pyruvate | total cell viability (8505C cells [5]; ATC cells, 48 hours at 50 μM): modestly but significantly reduced total cell viability | cell viability, concentration and time dependence (SRB assay) (8505C cells [5]; various concentrations and time points): concentration-dependent decrease in cell viability; also recorded: decreases 8505C cell viability in a time-dependent manner | proliferation marker Ki-67 expression (8505C cells [6]): inhibits proliferation | proliferation marker Ki-67 expression (8505C cells [6]; listed as CP): reduced expression of the proliferation marker Ki-67 | apoptosis (PARP, caspase 9 and caspase 7 cleavage) (8505C cells [6]): induced apoptosis in ATC cells | apoptosis (PARP, caspase 9 and caspase 7 cleavage) (8505C cells [6]; listed as CP): significant PARP, caspase 9, and caspase 7 cleavage | apoptosis (PARP, caspase 9 and caspase 7 cleavage) (8505C cells [6]; listed as CP-911,49): induces apoptosis
